The target in assay [1] is hCOX-1 (Homo sapiens, UniProt P23219). Particulars: enzyme specific activity in the presence of arachidonic acid 100 µM and the inhibitor. As for the experimental part:
(§1) Functional analysis of ovine and human COX-1 catalytic activity was determined by monitoring O2 consumption by using an Oxytherm electrode unit (Hansatech), in the presence of arachidonic acid and different inhibitors. The instrument is equipped with a Clark-type oxygen electrode to monitor the dissolved oxygen concentration in a sealed measurement chamber over the time. Oxygen consumption was measured at 37 °C directly in a 1000 µL reaction vessel. Briefly, it follows the description of a typical assay: Oxygraph buffer (the opportune volume is adjusted to 1000 µL of final volume according to the volume of the protein), 5 µM hemin (1 µL), 100 µM arachidonic acid (20 µL) and inhibitor (10 µL) at the opportune concentrations.
(§2) Oxygen consumption determination (μmol/ml O2) started after the addition of the ovine or human COX-1/Sf9 sonicated pellet (C = 2.6 mg/ml) to the mixture containing Oxygraph buffer, arachidonic acid and test compounds at the opportune concentrations. Assay mixture was allowed to equilibrate in the reaction vessel at 37 °C for several minutes until steady baseline was recorded. Uninfected Sf9 sonicated cells were used as a negative control. Stock solutions were prepared in a minimum volume of vehicle (DMSO).

In assay [2] the target is T1, oCOX-1 (Ovis aries, UniProt P05979).
T1 sequence (P05979 25-600): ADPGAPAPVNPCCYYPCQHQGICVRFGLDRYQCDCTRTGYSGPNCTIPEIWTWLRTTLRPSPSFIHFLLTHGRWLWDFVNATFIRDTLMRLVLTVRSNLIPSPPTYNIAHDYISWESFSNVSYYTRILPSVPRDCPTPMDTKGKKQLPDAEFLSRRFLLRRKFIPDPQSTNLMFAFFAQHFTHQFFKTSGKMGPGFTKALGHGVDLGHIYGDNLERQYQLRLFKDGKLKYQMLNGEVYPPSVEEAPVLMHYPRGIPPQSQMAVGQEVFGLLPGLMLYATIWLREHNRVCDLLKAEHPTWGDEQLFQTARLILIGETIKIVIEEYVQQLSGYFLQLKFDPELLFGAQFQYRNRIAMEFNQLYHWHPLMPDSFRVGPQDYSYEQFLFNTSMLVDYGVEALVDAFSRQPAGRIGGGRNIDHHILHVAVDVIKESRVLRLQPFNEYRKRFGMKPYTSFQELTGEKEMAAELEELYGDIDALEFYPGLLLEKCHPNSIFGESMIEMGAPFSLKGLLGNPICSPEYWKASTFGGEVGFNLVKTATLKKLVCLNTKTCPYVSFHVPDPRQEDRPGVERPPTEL
The settings on record: enzyme specific activity in the presence of arachidonic acid 100 µM and the inhibitor. As for the experimental part: as §1, §2

Sequence of hCOX-1 (P23219 24-599): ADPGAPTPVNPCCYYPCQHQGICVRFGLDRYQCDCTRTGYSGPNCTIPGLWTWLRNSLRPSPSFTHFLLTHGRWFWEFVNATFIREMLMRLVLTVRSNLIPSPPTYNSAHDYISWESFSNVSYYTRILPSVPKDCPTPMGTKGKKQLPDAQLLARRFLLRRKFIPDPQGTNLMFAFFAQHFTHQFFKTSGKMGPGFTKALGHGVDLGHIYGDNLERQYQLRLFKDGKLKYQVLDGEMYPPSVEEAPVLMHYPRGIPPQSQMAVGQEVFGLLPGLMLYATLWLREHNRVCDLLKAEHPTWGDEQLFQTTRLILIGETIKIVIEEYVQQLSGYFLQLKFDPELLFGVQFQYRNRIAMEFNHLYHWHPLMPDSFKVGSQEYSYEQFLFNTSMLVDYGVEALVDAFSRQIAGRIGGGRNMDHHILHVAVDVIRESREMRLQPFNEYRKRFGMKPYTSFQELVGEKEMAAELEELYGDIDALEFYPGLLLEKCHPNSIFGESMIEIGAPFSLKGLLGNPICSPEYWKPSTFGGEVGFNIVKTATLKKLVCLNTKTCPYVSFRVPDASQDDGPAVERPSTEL

On to `COc1ccc(-c2noc(CC(=O)O)c2-c2ccc(OC)cc2)cc1` [mofezolac], for which the “Specific activity hCOX-1” value in assay [1] worked out at 4.5 µmol/min/mg. The “Specific activity oCOX-1” value in assay [2] stood at 3.5 µmol/min/mg.
